Data published in patent publication US8853387B2, “Mimetics of sulfated oligosaccharides” (Istituto di Ricerche Chimiche e Biochimiche “G. Ronzoni”, priority 2008, dated 2014).

Target: T1, recombinant human heparanase (Homo sapiens, UniProt Q9Y251)
T1 sequence (Q9Y251 158-543 limits assumed): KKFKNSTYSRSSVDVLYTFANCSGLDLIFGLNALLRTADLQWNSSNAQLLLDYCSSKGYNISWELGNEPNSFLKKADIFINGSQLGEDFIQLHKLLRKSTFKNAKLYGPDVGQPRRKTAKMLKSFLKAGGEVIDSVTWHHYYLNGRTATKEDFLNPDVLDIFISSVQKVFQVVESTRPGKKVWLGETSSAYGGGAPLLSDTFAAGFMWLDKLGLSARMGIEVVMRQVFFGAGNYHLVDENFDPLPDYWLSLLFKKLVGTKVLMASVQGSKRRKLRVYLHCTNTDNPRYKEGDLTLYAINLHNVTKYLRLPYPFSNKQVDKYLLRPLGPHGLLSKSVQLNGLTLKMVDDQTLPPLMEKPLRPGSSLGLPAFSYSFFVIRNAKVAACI
T1 sequence (Q9Y251 36-109 limits assumed): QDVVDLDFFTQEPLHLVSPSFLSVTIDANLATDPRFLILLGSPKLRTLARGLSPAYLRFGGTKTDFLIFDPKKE
Test: Heparanase activity on sulfate labeled ECM substrate
Assay type: biochemical
Conditions: compound at 5 μg/ml; recombinant human heparanase 10 ng/ml, 37° C., pH 6.0, 4 h; control (enzyme alone) = 100
Description: Sulfated compound was tested at two concentrations (1 & 5 μg/ml) for its ability to inhibit the heparanase enzyme, using metabolically sulfate labeled ECM as a substrate. Briefly, sulfate labeled ECM coating the surface of 35-mm tissue culture dishes, is incubated (37° C., pH 6.0, 4 h, 1 ml final volume) with recombinant human heparanase (10 ng/ml) in the absence and presence of increasing amounts of each compound. The reaction mixture contains: 50 mM NaCl, 1 mM DTT, 1 mM CaCl2, and 10 mM buffer Phosphate-Citrate, pH 6.0. To evaluate the occurrence of proteoglycan degradation, the incubation medium is collected and applied for gel filtration on Sepharose 6B columns (0.9×30 cm). Fractions (0.2 ml) are eluted with PBS at a flow rate of 5 ml/h and counted for radioactivity. The excluded volume (VO) is marked by blue dextran and the total included volume (Vt) by phenol red. Degradation fragments of HS side chains are eluted at 0.5<Kav<0.8 (peak II). Results are best presented as the actual gel filtration profiles. Numerical values derived from these graphs are presented in FIG. 1 as heparanase activity (% of control), where: Heparanase activity=Kav×total cpm in peak II (fractions 15-35). Kav=(Ve−Vo/Vt−Vo). • Control Kay=Kay obtained in the presence of enzyme alone (without inhibitors). Effect of Sulfated Malto-Oligosaccharides Mimics (MOS) on Hpa Activity—Tables 1 and 2.

Heparanase activity (5 μg/ml): 27 % of control
Substance: Maltohexaose sulfate [MHS]
